Assay results reported in US9452185B2, “Mesenchymal stem cells and supports for tissue regeneration, repair and reconstruction” (THE TEXAS A&M UNIVERSITY SYSTEM, priority 2009, dated 2016).
Entries after “also recorded” stand apart in the source; their conditions may differ.

What was measured:
hMSCs [1] = assay: hMSC yield, cell cycle analysis and cleaved caspase-3 immunoblot; format: cell-based, human; conditions: for hMSC yield: BIO at concentrations greater than 400 nM, GW at tested doses; for cleaved caspase-3 (Asp175) immunoblot: whole cell extracts of treated hMSCs
Protocol: Cell cycle. Profiles were generated by fluorescence activated cell sorting and analyzed with software. Protein extraction, gel electrophoresis and western blotting. Nuclear extracts were performed by Triton extraction and differential centrifugation as previously described (Gregory et al., 2003, J Biol Chem 278:2806728078). Proteins were electrophoresed and blotted onto nitrocellulose using an electrophoresis system.

osteoprotegerin (OPG) = assay: OPG secretion by ELISA; format: cell-based, human; conditions: osteogenic medium lacking dex, 8 days
Protocol: (§1) ELISAs. ELISA for CXCL6, Dkk-1, GROa, GRO13, and OPG were carried out by using nonbiotinylated polyclonal capture antibodies and biotinylated detection antibodies that were commercially acquired on coated 96-well plates The biotinylated […] antibodies were detected by using horseradish peroxidase-conjugated streptavidin and TMB substrate. ELISA for IL-lb were performed by using commercially acquired kits. In order to characterize the influence of 7AIPM on osteogenic differentiation, hMSC's from two donors were cultured as described elsewhere herein with the addition of varying concentrations of the compound or vehicle to the media. Samples of the media were collected daily for analysis. These samples were analyzed for the presence of OPG and Dkk-1 using ELISA. Alkaline phosphatase activity of the monolayers and cell numbers were measured using a spectrophotometer.

hMSCs [2] = assay: Microarray of cultured hMSCs after 8 days in osteogenic media (in vitro); format: cell-based, human; conditions: for transcript transducin-like enhancer of split-1 / transcripts Klf-6, caldesmon-1, gamma-aminobutyric acid B receptor-2, synaptotagmin like-2 / transcripts fibroblast growth factor-7, high mobility group AT-hook 2, Cdk5 and Abl enzyme substrate-1, amyloid beta precursor protein-binding family B2 / transcripts protocadherin-7, PR domain containing-1, gremlin-1, collectin subfamily member-12, stanniocalcin-2: 8 days, 200/800 nM BIO, 1.0/10 μM GW; for collagens and ECM proteins found in bone tissue (transcripts): vs vehicle control
Protocol: Array analysis. Transcriptome arrays were performed using Affimetrix apparatus and HG-U133 Plus 2.0 chips. Cytokine arrays on conditioned media were performed using a human cytokine array and analyzed using a digital imager. Effects of GSK3β and PPARγ inhibition on the transcriptome of hMSCs. […] After 8 days of culture, RNA microarrays were performed on the hMSCs.

calvarial defects = assay: Calvarial defect repair, 50 days (x-ray radio-opacity); format: in vivo, nude mice; conditions: for repair of cranial lesions (radio-opacity ratio lesioned/contralateral): day 50, 1×10^6 pretreated hMSCs in plasma, further doses day 14, 28, 42
Protocol: Calvarial lesions. MSCs were cultured in the presence of osteogenic base media containing the appropriate inhibitor or vehicle. After 8 days, they were suspended in human plasma and administered to nude mice that had received a circular lesion in the cranium. Subsequent doses of cells were administered by direct injection in plasma/thromboplastin mix.
X-ray imaging and quantification. Cranial bones were imaged by x-ray under anaesthesia. Digital images were be captured on a digital plate and processed on a phosphorimager reader and processed by volume analysis software.
Effects of GSKβ and PPARγ inhibition on repair of an induced cranial defect in mice. Given that BIO and GW accelerated osteogenic differentiation by human MSCs in vitro, experiments were conducted to test whether the treated hMSCs could repair a critical bone defect in vivo. Human MSCs were cultured in the presence of osteogenic medium lacking dex, but containing BIO (200 and 800 nM) or GW (1.0 and 10.0 μM). Calvarial lesions were generated in nude mice and 1×10^6 hMSCs, mixed with human plasma were applied followed by thromboplastin to initiate gelling. The scalp was sutured and the animals were allowed to heal. Initially, short-duration experiments were performed to monitor distribution of the hMSCs, and to ensure the cells had survived the implantation process. GFP-labeled hMSCs were administered and mice were sacrificed after 24 h. Upon histological analysis, a substantial number of GFP-labeled, healthy hMSCs had formed a thick layer over the injury and adjacent bone tissue (FIG. 24A, 24B). The hMSCs could be readily detected with an antibody for membrane localized human β-2 microglobulin (FIG. 24C, 24D). Robust antibody-detection of unmanipulated hMSCs, rather than lentiviral labeling was favored in long term experiments because very low passage hMSCs could be utilized, rather than genetically tagged preparations that had undergone a number of passages. Long term experiments were performed for 50 days with further doses of hMSCs administered at day 14, 28 and 42 by direct injection of a plasma:hMSC mixture under the scalp (FIG. 25A). At day 50, the crania were explanted and x-ray images of the calvarial lesions were taken. The digitized images were then analysed densitometrically to quantify the degree of bone accrual (FIG. 25B). The lesioned side was compared with the contralateral side and data were expressed as the ratio of radio-opacity on the lesioned side to the contralateral side. […] When the sections were stained with anti-β-2 microglobulin, isolated clusters of hMSCs from only control and GW groups were detected (FIGS. 27C and 27D).

β-catenin, GSK3β, PPARγ = assay: Intracellular distribution of β-catenin, GSK3β and PPARγ (immunoblot, fluorescence microscopy); format: cell-based, human; conditions: for GSK3β in the cytoplasm / nuclear β-catenin: MSCs under osteogenic conditions
Protocol: Protein extraction, gel electrophoresis and western blotting. Nuclear extracts were performed by Triton extraction and differential centrifugation as previously described (Gregory et al., 2003, J Biol Chem 278:2806728078). Proteins were electrophoresed and blotted onto nitrocellulose using an electrophoresis system. Histochemistry and immunocytochemistry. For β-catenin localization studies, hMSCs were stained with a cy-3 conjugated anti-β-catenin antibody and nuclei were counterstained with pico-green dye. Specimens were processed as paraffin blocks and 8 longitudinal sections were prepared, deparaffinized and rehydrated, then stained with hematoxylin and eosin. For immunocytochemistry, sections were probed with an anti-human β-2-microglobulin antibody. An upright fluorescent microscope fitted with a high performance camera (and image analysis software was employed for imaging.

hMSCs [3] = assay: Late stage osteogenesis, Alizarin Red S (ARS) staining; format: cell-based, human; conditions: for dex-induced biomineralization with simultaneous treatment: 17 days with β-GP, ascorbate and dex; for dex-induced mineralization after pre-treatment: BIO 200 and 800 nM, GW 1.0 and 10.0 μM for 8 days, then 15 days with dex; for biomineralization in the absence of dex: extended incubation
Protocol: Late stage osteogenesis and ARS staining. Mature osteogenic assays were performed in 6 well format as previously described (Gregory et al., 2004, Anal Biochem 329:77-84).
Effect of GSK3β and PPARγ inhibition on late stage osteogenesis. […] Initially, experiments were conducted to examine whether pre-treatment of hMSCs with inhibitors BIO (200 and 800 nM) and GW (1.0 and 10.0 μM) in the presence of β-glycerophosphate (β-GP) and ascorbate for 8 days followed by 15 days in the same media supplemented with dex affected mineralization of the cultures. If BIO or GW function to accelerate the cells through the immature stages of osteogenesis and partially to maturity, hMSCs exposed to these conditions would be expected to respond more rapidly to the steroid-dependent mature osteoblast transition. After differentiation, calcium content was visualized by Alizarin Red S (ARS) staining and the dye was extracted and quantified. At the doses tested, and in a dose-dependent manner, BIO and GW enhanced dex-induced differentiation into biomineralizing osteoblasts (FIG. 21).
The next experiments were performed to examine whether withdrawal of the Wnt stimulus caused by BIO and GW was necessary for the hMSCs to progress to a dex-dependent biomineralizing phenotype. Human MSCs were pre-cultured with BIO and GW in the presence of f3-GP, ascorbate and dex for 17 days. […] Clotted human plasma is a biocompatible and osteoinductive vector for administration of hMSCs

Dkk-1 = Dkk-1 secretion by ELISA; format: cell-based, human; conditions: osteogenic medium lacking dex, 8 days
Protocol: as §1

Compound: O=C1Nc2cc(Br)ccc2/C1=C1/Nc2ccccc2/C1=N\O [BIO, bromo-indirubin-3′-mono-oxime]
- cell cycle effect (hMSCs [1]; 800 nM BIO, 8 days): inhibit mitosis
- hMSC yield (hMSCs [1]): substantial reduction
- cleaved caspase-3 (Asp175) immunoblot (hMSCs [1]): no evidence of caspase 3 processing
- secretion of OPG (osteoprotegerin (OPG)): rose in a dose dependent manner
- transcript transducin-like enhancer of split-1 (hMSCs [2]): down-regulated
- transcripts Klf-6, caldesmon-1, gamma-aminobutyric acid B receptor-2, synaptotagmin like-2 (hMSCs [2]): significantly up-regulated
- transcripts fibroblast growth factor-7, high mobility group AT-hook 2, Cdk5 and Abl enzyme substrate-1, amyloid beta precursor protein-binding family B2 (hMSCs [2]): no change
- transcripts protocadherin-7, PR domain containing-1, gremlin-1, collectin subfamily member-12, stanniocalcin-2 (hMSCs [2]): significantly up-regulated
- collagens and ECM proteins found in bone tissue (transcripts) (hMSCs [2]): up-regulated
- repair of cranial lesions (radio-opacity ratio lesioned/contralateral) (calvarial defects): no significant sign of bone repair
- nuclear levels of PPARγ (β-catenin, GSK3β, PPARγ): reduced
- GSK3β in the cytoplasm (β-catenin, GSK3β, PPARγ): depletion
- nuclear β-catenin (β-catenin, GSK3β, PPARγ): increased levels
- dex-induced biomineralization with simultaneous treatment (hMSCs [3]): enhanced dex-induced biomineralization
- dex-induced mineralization after pre-treatment (hMSCs [3]): enhanced
- biomineralization in the absence of dex (hMSCs [3]): did not induce biomineralization
- Dkk-1 secretion (Dkk-1): reduced

Compound: O=C(Nc1ccccc1)c1cc([N+](=O)[O-])ccc1Cl [GW9662, 2-chloro-5-nitro-N-phenyl-benzamide]
- hMSC yield (hMSCs [1]): without reduction in cellular yield
- cleaved caspase-3 (Asp175) immunoblot (hMSCs [1]): no evidence of caspase 3 processing
- dose of maximal stimulation of OPG secretion (osteoprotegerin (OPG)): 0.5 µM
- transcript transducin-like enhancer of split-1 (hMSCs [2]): down-regulated
- transcripts Klf-6, caldesmon-1, gamma-aminobutyric acid B receptor-2, synaptotagmin like-2 (hMSCs [2]): significantly up-regulated
- transcripts fibroblast growth factor-7, high mobility group AT-hook 2, Cdk5 and Abl enzyme substrate-1, amyloid beta precursor protein-binding family B2 (hMSCs [2]): significantly up-regulated
- transcripts protocadherin-7, PR domain containing-1, gremlin-1, collectin subfamily member-12, stanniocalcin-2 (hMSCs [2]): no change
- inflammatory mediator genes (IL1, IL8, CXCL chemokines) (hMSCs [2]; vs control): profoundly down-regulated
- collagens and ECM proteins found in bone tissue (transcripts) (hMSCs [2]): up-regulated
- improvement in healing compared with controls (calvarial defects; MSCs treated with GW9662 applied to calvaria bone defect): 2-3 fold
- lesion healing (calvarial defects; after 50 days of repeated cell administration): about 60%
- repair of cranial lesions (radio-opacity ratio lesioned/contralateral) (calvarial defects; listed as GW): significantly improved; also recorded: profoundly improved healing
- nuclear levels of PPARγ (β-catenin, GSK3β, PPARγ): reduced
- GSK3β in the cytoplasm (β-catenin, GSK3β, PPARγ): depletion
- nuclear β-catenin (β-catenin, GSK3β, PPARγ): increased levels
- dex-induced biomineralization with simultaneous treatment (hMSCs [3]): enhanced dex-induced biomineralization
- dex-induced mineralization after pre-treatment (hMSCs [3]): enhanced
- biomineralization in the absence of dex (hMSCs [3]): did not induce biomineralization
- Dkk-1 secretion (Dkk-1): reduced
